Consider 24 molecules from patent publication US11306081B2, “Phenylacetamides as inhibitors of rock” (BRISTOL-MYERS SQUIBB COMPANY, priority 2017, dated 2022).

For orientation: pIC50 means the IC50 on a negative log10 scale, so that one unit is a factor of ten. A high value points to a small IC50.

pIC50: −log10 of the molar value.

ROCK2, sequence (O75116 whole entry, species assumed): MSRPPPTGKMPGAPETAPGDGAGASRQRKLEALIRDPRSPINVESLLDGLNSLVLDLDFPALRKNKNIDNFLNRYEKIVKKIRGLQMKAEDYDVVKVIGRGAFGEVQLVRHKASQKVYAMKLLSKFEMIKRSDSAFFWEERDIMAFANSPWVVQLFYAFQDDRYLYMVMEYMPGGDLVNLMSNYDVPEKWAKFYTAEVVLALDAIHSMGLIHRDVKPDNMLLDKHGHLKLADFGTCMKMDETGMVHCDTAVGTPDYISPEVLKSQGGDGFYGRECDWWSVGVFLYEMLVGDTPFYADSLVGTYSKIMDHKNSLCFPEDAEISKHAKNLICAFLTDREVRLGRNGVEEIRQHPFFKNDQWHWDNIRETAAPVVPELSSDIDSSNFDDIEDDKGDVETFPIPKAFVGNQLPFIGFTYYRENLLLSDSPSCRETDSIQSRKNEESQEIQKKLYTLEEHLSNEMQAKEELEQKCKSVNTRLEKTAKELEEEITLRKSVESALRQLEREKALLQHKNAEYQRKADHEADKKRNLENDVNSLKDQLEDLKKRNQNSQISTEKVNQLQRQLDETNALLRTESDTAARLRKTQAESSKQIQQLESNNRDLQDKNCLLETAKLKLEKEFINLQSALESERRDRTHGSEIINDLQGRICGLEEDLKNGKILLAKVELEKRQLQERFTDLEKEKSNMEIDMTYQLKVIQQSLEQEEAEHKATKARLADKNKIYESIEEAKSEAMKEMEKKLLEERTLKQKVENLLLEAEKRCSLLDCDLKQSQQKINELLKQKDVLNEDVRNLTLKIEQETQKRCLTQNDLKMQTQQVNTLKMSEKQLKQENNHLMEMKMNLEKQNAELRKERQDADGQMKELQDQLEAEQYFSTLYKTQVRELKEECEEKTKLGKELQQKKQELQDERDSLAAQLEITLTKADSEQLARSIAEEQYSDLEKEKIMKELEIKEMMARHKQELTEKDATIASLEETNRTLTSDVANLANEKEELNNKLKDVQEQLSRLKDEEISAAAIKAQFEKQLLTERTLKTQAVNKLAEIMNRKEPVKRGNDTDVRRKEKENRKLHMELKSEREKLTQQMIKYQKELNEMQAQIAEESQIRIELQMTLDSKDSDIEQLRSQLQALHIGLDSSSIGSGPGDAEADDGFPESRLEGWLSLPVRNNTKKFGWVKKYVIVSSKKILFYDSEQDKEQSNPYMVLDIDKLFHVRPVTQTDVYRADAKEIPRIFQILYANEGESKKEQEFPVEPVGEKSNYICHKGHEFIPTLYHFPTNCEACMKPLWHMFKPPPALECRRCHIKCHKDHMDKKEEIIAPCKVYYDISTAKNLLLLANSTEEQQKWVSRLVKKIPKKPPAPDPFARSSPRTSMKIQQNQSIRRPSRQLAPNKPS

The assay has as its target ROCK2 (Homo sapiens (Human), UniProt O75116). In words: ROCK assay (LABCHIP 3000 peptide phosphorylation assay). In kind it is biochemical. The conditions noted are these: 5 μM ATP, 1.5 μM peptide substrate, dose-response. The protocol:
The effectiveness of compounds of the present invention as ROCK inhibitors can be determined in a 30 μL assay containing 20 mM HEPES, pH 7.5, 20 mM MgCl2, 0.015% Brij-35, 4 mM DTT, 5 μM ATP and 1.5 μM peptide substrate (FITC-AHA-AKRRRLSSLRA-OH) (SEQ ID No. 1). Compounds were dissolved in DMSO so that the final concentration of DMSO was <2%, and the reaction was initiated with Rho kinase variants. After incubation, the reaction was terminated by the addition of EDTA and the phosphorylated and non-phosphorylated peptides separated using a LABCHIP® 3000 Reader (Caliper Life Sciences). […] Compounds were tested in dose-response format, and the inhibition of kinase activity was calculated at each concentration of compound. The inhibition data were fit using a curve-fitting program to determine the IC50; i.e., the concentration of compound required to inhibit 50% of kinase activity.
In turn, `NC(=O)c1cccnc1Oc1ccc(CC(=O)Nc2nc3ccc(OC(F)(F)F)cn3n2)cc1F` [Example 140, 2-(2-fluoro-4-(2-oxo-2-((6-(trifluoromethoxy)-[1,2,4]triazolo[1,5-a]pyridin-2-yl)amino)ethyl)phenoxy)nicotinamide] gave a pIC50 of 7.03.

Turning to `NC(=O)c1cccnc1Oc1ccc(CC(=O)Nc2nc3ccc(OC(F)F)nc3s2)cc1Cl` [Example 121, 2-(2-chloro-4-(2-((5-(difluoro-methoxy)thiazolo-[5,4-b]pyridin-2-yl)amino)-2-oxoethyl)phenoxy)-nicotinamide], the pIC50 is 7.35.

As to `Cc1sc(NC(=O)Cc2ccc(Oc3ncccc3C(N)=O)c(F)c2)nc1-c1cnc(N2CCN(C)CC2)nc1` [Example 039, 2-(2-fluoro-4-(2-((5-methyl-4-(2-(4-methylpiperazin-1-yl)pyrimidin-5-yl)thiazol-2-yl)amino)-2-oxoethyl)phenoxy)nico-tinamide], the pIC50 is 6.74.

In turn, `Cc1nc(NC(=O)Cc2ccc(Oc3ncccc3C(N)=O)c(F)c2)sc1C` [Example 098, 2-(4-(2-((4,5-dimethylthiazol-2-yl)amino)-2-oxoethyl)-2-fluorophenoxy)nico-tinamide] had a negative logarithm of the IC50 (pIC50) of 7.51.

`NC(=O)c1cccnc1Oc1ccc(CC(=O)Nc2nc3ccccc3n2Cc2ccccc2)cc1Cl` [Example 079, 2-(4-(2-((1-benzyl-1H-benzo[d]imidazol-2-yl)amino)-2-oxoethyl)-2-chlorophenoxy)nico-tinamide] showed a negative-log IC50 (pIC50) of 6.74.

In turn, `Cc1nn(C)cc1-c1ccc2sc(NC(=O)Cc3ccc(Oc4ncccc4C(N)=O)c(F)c3)nc2c1` [Example 004, 2-(4-(2-((5-(1,3-dimethyl-1H-pyrazol-4-yl)benzo[d]thiazol-2-yl)amino)-2-oxoethyl)-2-fluorophenoxy)nicotinamide] had a pIC50 of 8.52.

In turn, `NC(=O)c1cccnc1Oc1ccc(CC(=O)Nc2nc3cc(-c4cnn(C(F)F)c4)ccn3n2)cc1F` [Example 135, 2-(4-(2-((7-(1-(difluoro-methyl)-1H-pyrazol-4-yl)-[1,2,4]-triazolo[1,5-a]pyridin-2-yl)amino)-2-oxoethyl)-2-fluorophen-oxy)nicotin-amide] gave a pIC50 of 7.60.

`COCCn1c(NC(=O)Cc2ccc(Oc3ncccc3C(N)=O)c(F)c2)nc2ccc(C(N)=O)cc21` [Example 158, 2-(2-(4-((3-carbamoyl-pyridin-2-yl)oxy)-3-fluorophenyl)-acetamido)-1-(2-methoxyethyl)-1H-benzo[d]-imidazole-6-carboxamide] had a pIC50 of 5.76.

As for `COc1cc(C#N)c2c(c1)CCN2C(=O)Cc1ccc(Oc2ncccc2C(N)=O)cc1` [Example 056, 2-(4-(2-(7-cyano-5-methoxyindolin-1-yl)-2-oxoethyl)phenoxy) nicotinamide], the pIC50 is 5.96.

For the molecule `Cc1nn(C)cc1-c1ccn2nc(NC(=O)Cc3ccc(Oc4ncccc4C(N)=O)c(F)c3)nc2c1` [Example 136, 2-(4-(2-((7-(1,3-dimethyl-1H-pyrazol-4-yl)-[1,2,4]-triazolo[1,5-a]pyridin-2-yl)amino)-2-oxoethyl)-2-fluorophen-oxy)nicotin-amide], the negative-log IC50 (pIC50) was 7.96.

The molecule `Cn1ccc(-c2ccc3sc(NC(=O)Cc4ccc(Oc5ncccc5C(N)=O)c(F)c4)nc3c2)n1` [Example 033, 2-(2-fluoro-4-(2-((5-(1-methyl-1H-pyrazol-3-yl)benzo[d]thiazol-2-yl)amino)-2-oxoethyl)phenoxy)nico-tinamide] had a negative-log IC50 (pIC50) of 8.15.

The molecule `Cc1cc2nc(NC(=O)Cc3ccc(Oc4ncccc4C(N)=O)c(F)c3)nn2cc1C` [Example 130, 2-(4-(2-((6,7-dimethyl-[1,2,4]-triazolo[1,5-a]-pyridin-2-yl)-amino)-2-oxoethyl)-2-fluorophenoxy)-nicotinamide] had a pIC50 of 7.64.

`CN1CCC(Oc2ccc(NC(=O)Cc3ccc(Oc4ncccc4C(N)=O)c(Cl)c3)cc2)CC1` [Example 095, 2-(2-chloro-4-(2-((4-((1-methylpiperidin-4-yl)oxy)phenyl)ami-no)-2-oxoethyl)phenoxy) nicotinamide] had a negative-log IC50 (pIC50) of 6.95.

Take `N#Cc1ccc2[nH]c(NC(=O)Cc3ccc(Oc4ncccc4C(N)=O)cc3)nc2c1` [Example 071, 2-(4-(2-((5-cyano-1H-benzo[d]imidazol-2-yl)amino)-2-oxoethyl)phenoxy) nicotinamide]: the pIC50 is 6.21.

Molecule `CC(C)n1c(NC(=O)Cc2ccc(Oc3ncccc3C(N)=O)c(F)c2)nc2ccccc21` [Example 153, 2-(2-fluoro-4-(2-((1-isopropyl-1H-benzo[d]imidazol-2-yl)amino)-2-oxoethyl)-phenoxy)nicotinamide] gave a negative-log IC50 (pIC50) of 6.66.

As to `NC(=O)c1cccnc1Oc1ccc(CC(=O)Nc2nc3ccccc3n2CC2CCC2)cc1F` [Example 152, 2-(4-(2-((1-(cyclobutylmethyl)-1H-benzo[d]imidazol-2-yl)amino)-2-oxoethyl)-2-fluorophenoxy)nicotinamide], the negative logarithm of the IC50 (pIC50) was 7.26.

For the molecule `Cn1cc(-c2ccc3nc(NC(=O)Cc4ccc(Oc5ncccc5C(N)=O)c(F)c4)cn3c2)cn1` [Example 036, 2-(2-fluoro-4-(2-((6-(1-methyl-1H-pyrazol-4-yl)imidazo[1,2-a]pyridin-2-yl)amino)-2-oxoethyl)phenoxy)nico-tinamide], the negative logarithm of the IC50 (pIC50) was 7.32.

`CC(C)(O)COc1ccc2sc(NC(=O)Cc3ccc(Oc4ncccc4C(N)=O)c(F)c3)nc2c1` [Example 003, 2-(2-fluoro-4-(2-((5-(2-hydroxy-2-methylpropoxy)benzo[d]thiazol-2-yl)amino)-2-oxoethyl)phenoxy)nicotinamide]: the pIC50 was 7.70.

As for `Cc1sc(NC(=O)Cc2ccc(Oc3ncccc3C(N)=O)cc2)nc1-c1ccccc1` [Example 016, 2-(4-(2-((5-methyl-4-phenylthiazol-2-yl)amino)-2-oxoethyl)phenoxy) nicotinamide], the pIC50 was 7.06.

The molecule `NC(=O)c1cccnc1Oc1ccc(CC(=O)Nc2nnc(-c3ccccc3)s2)cc1` [Example 058, 2-(4-(2-oxo-2-((5-phenyl-1,3,4-thiadiazol-2-yl)amino)ethyl)phe-noxy)nicotinamide] showed a negative-log IC50 (pIC50) of 6.38.

Molecule `NC(=O)c1cccnc1Oc1ccc(CC(=O)Nc2nc3cc(-c4cnn(C(F)F)c4)ccc3s2)cc1F` [Example 029, 2-(4-(2-((5-(1-(difluoromethyl)-1H-pyrazol-4-yl)benzo[d]thiazol-2-yl)amino)-2-oxoethyl)-2-fluorophenoxy)nicotin-amide] had a pIC50 of 8.05.

In turn, `NC(=O)c1cccnc1Oc1ccc(CC(=O)Nc2nc3c(F)cccc3n2CC2CC2)cc1Cl` [Example 171, 2-(2-chloro-4-(2-((1-(cyclo-propylmethyl)-4-fluoro-1H-benzo[d]-imidazol-2-yl)-amino)-2-oxo-ethyl)phenoxy)-nicotinamide] had a pIC50 of 8.52.

As to `NC(=O)c1cccnc1Oc1ccc(CC(=O)Nc2nc(-c3cccc4oc(=O)ccc34)cs2)cc1` [Example 061, 2-(4-(2-oxo-2-((4-(2-oxo-2H-chromen-5-yl)thiazol-2-yl)amino)ethyl)phe-noxy)nicotinamide], the pIC50 is 6.30.

Molecule `Cn1nccc1-c1ccc2nc(NC(=O)Cc3ccc(Oc4ncccc4C(N)=O)c(F)c3)nn2c1` [Example 138, 2-(2-fluoro-4-(2-((6-(1-methyl-1H-pyrazol-5-yl)-[1,2,4]triazolo[1,5-a]pyridin-2-yl)amino)-2-oxoethyl)phenoxy)nicotinamide] had a pIC50 of 7.41.
